# Measurements: the NIST ThermoML archive (doi:10.1016/j.jct.2019.01.001)
# ± gives the expanded uncertainty stated by the source.
# Assay: not given
# Conditions: 293.15 K; 101.33 kPa; Liquid; Vibrating tube method
row,SMILES,mass density [kg/m3]
1,CCn1cc[n+](C)c1.F[B-](F)(F)F [1-ethyl-3-methylimidazolium tetrafluoroborate],1283 ± 5.3
2,O [water],998.5 ± 0.4
3,CCCC(C)O (stereo unspecified) [pentan-2-ol],810.1 ± 1.6
4,CO [methanol],791.9 ± 0.4
5,CC(=O)CC(C)C [4-methylpentan-2-one],800.9 ± 1.6

# Assay: wn = mass fraction of the nth substance listed
# Conditions: 293.15 K; 100 kPa; Liquid; Vibrating tube method; w1 = 0.7
row,SMILES,mass density [kg/m3]
1,O=[N+]([O-])O [nitric acid] + O,1411.5 ± 2.9
